Experiments:
[1] = system: 5-HT1P receptor; assay: Neuronal tissue assay: voltage-sensitive dye neuroimaging of human submucous plexus preparations; format: cell-based
Experimental: The effect of 5-BOIP was tested on freshly dissected submucous plexus preparations from surgical resections of human intestine. Samples were taken from macroscopically unaffected areas. Procedures were approved by the ethics committees of the Technical University Munich (1748/07 and 2595/09). Segments were dissected in ice cold Krebs solution to obtain mucosa/submucosa preparations containing the inner submucous plexus preparations for the imaging experiments.
In order to image the activity of enteric neurons using voltage sensitive dyes, the human submucous plexus preparations were placed into a recording chamber which was continuously perfused at 37° C. with oxygenated Krebs solution containing 117 mM NaCl, 4.7 mM KCl, 1.2 mM MgCl2, 1.2 mM NaH2PO4, 20 mM NaHCO3, 2.5 mM CaCl2, 11 mM glucose (pH 7.4). The neuroimaging set-up allowed to monitor membrane potential changes and changes in intracellular Ca^2+ [Ca]i transients in all cells of a given ganglion. To study membrane potential changes, individual ganglia were stained with the voltage-sensitive dye Di-8-ANEPPS (20 μM; Molecular Probes, Eugene, Oreg., USA) via intraganglionic application through a microejection pipette.
The imaging experiments were conducted on an inverted microscope (Zeiss Axio Observer.A1; Munich, Germany) equipped with the NeuroCCD system, consisting of a fast CCD camera (80×80 pixels) and the Neuroplex software for data acquisition and analysis (RedShirtImaging, Decatur, Ga., USA). To detect Di-8-ANEPPS a modified Cy3 filterset (545±15 nm excitation, 565 nm dichroic mirror, 580 nm barrier; Ahf Analysentechnik, Tübingen, Germany) was used. A green LED (LE T S2W, Osram, Munich, Germany) was used to excite Di-8-ANEPPS. Visualization of the ganglia and recording of signals were done with a ×100 or ×40 objective (NA=1.35, Olympus, Hamburg, Germany). The imaging set-up allowed to measure relative changes in the fluorescence (ΔF/F), which is for Di-8-ANEPPS linearly related to changes in the membrane potential. Frame rate to detect action potentials was 1 kHz. The overlay of signals and ganglion images allowed the analysis of the responses of individual cells.
5-BOIP was prepared at a stock solution of 100 mM. For controlled local application fine glass capillaries were filled with 50 μM 5-BOIP and positioned just above a ganglion. 5-BOIP was microejected for 400 ms via pressure pulse onto the ganglion. […] Since G protein coupled receptor activation takes several seconds, the recordings were started after a period of 2 s. In preliminary experiments it was verified that there was no immediate effect of 5-BOIP that would begin with the ejection application or directly thereafter.
The specificity of 5-BOIP effects was tested against the 5-HT1 antagonist 5-hydroxytryptophan dipeptide (5-HTP-DP). […]

[2] = system: circular muscle strips from the guinea pig stomach; assay: Nerve mediated muscle responses to electrical field stimulation (EFS) in circular muscle strips, organ bath; format: cell-based; details: 10 μM in organ bath, EFS after 20 min
Experimental: The effects of 5-BOIP and homo-5-BOIP were tested in tissue preparations from the guinea pig stomach. After sacrificing the guinea pigs, the stomach was removed and immediately placed in ice-cold oxygenated Krebs solution. The stomach was opened along the greater curvature, thoroughly washed and pinned mucosal side up in Sylgard-coated Petri dishes. The mucosa was then carefully removed. Muscle strips (1.5 cm^2) were cut parallel to the circular muscle and mounted in 25 ml organ baths where they were maintained in oxygenated Krebs solution at 37° C. One edge of each muscle strip was attached to an isometric tension transducer (PowerLab, AD Instruments, Spechbach, Germany).
After mounting in the organ baths, tissues were equilibrated with a preload set at 15 mN for 45 min. Then, electrical field stimulations (EFS) were performed (constant current, 100 mA, pulse frequency 10 Hz, pulse width of 0.5 ms, 10 s). With the chosen parameters for the EFS, only the neuronal tissue in the preparation was stimulated without having a direct effect on the smooth muscle. […]
After reaching stable responses to the EFS, 5-BOIP and homo-5-BOIP were added to the organ baths at a final concentration of 10 μM. […] The responses to the EFS under control conditions and in the presence of 5-BOIP or homo-5-BOIP were analyzed later.

[3] = Retention of activity after storage (chemical stability); format: physicochemical; details: storage for 15 months as a solid at 4° C. or in solution frozen at −20° C.
[4] = system: mouse isolated colon; details: cited from earlier work

Compound	action potential (spike) frequency ([1]; 5-BOIP alone, 50 μM in capillary microejected 400 ms onto ganglion, median (10%/90%))	effect on human enteric nerve cells when applied to the ganglia ([1]; 5-BOIP applied to ganglia, human submucous plexus)	action potential (spike) frequency in presence of 5-HT1P receptor antagonist 5-HTP-DP ([1]; 5-BOIP during 20 min bath application of 10 μM 5-HTP-DP, median (10%/90%))	action potential (spike) frequency after washing out the antagonist 5-HTP-DP ([1]; 5-BOIP freshly added after washout of 5-HTP-DP, median (10%/90%))	effect on the "on contraction" in response to the EFS [2]	activity after storage [3]	effect on threshold pressure required to trigger the peristaltic reflex [4]	effect on peristalsis ([4]; concentration dependent)
c1ccc(COc2ccc3[nH]cc(CCC4CCNCC4)c3c2)cc1 [5-BOIP, 5-(benzyloxy)-3-(2-(piperidin-4-yl)ethyl)-1H-indole]	1.6 (1.0/2.1) Hz	induces action potentials	0 (0/0.5) Hz	1.0 (0.5/1.6) Hz	clearly reduced	retains activity	–	–
Oc1ccc2[nH]cc(CCC3CCNCC3)c2c1 [5-OHIP, 5-hydroxyindalpine]	–	–	–	–	–	would lose its activity	reduce the threshold pressure	accelerate peristalsis
c1ccc(COc2ccc3[nH]cc(CCCC4CCNCC4)c3c2)cc1 [homo-5-BOIP, 5-(benzyloxy)-3-(3-[piperidin-4-yl]propyl)-1H-indole]	–	–	–	–	clearly reduced	–	–	–

From patent US9637471B2, “Hydroxyindalpine derivatives and their medical use” (Technische Universitat Munchen, priority 2013, dated 2017)
